Data taken from patent publication US4414205A, “Cell growth inhibitory substances” (University Patents, Inc., priority 1981, dated 1983).

Tests used:
B16 melanoma = experiment: Mouse tumor system B16 melanoma (NCI murine B16 melanoma test); format: in vivo
Experimental: (§1) A description of the antitumor tests, described herein, appears in the reference by R. I. Geran, N. H. Greenberg, M. M. MacDonald, A. M. Schumacher and B. J. Abbott, Cancer Chemother. Rep. Part 3, Vol. 3(2): 1-103 (1972).
(§2) ^a tumors were inoculated intraperitoneally (i.p.)
(§3) ^b compounds were administered i.p. everyday for 9 days starting on
(§4) the first day after tumor inoculation.
(§5) ^c Calculated from median survival times; Nos. in parentheses = No. o
(§6) cures/total No. of mice in group. Cured mice survive for at least 60 days

P388 leukemia = experiment: Mouse tumor system P388 leukemia (murine P388 lymphocytic leukemia); format: in vivo
Experimental: as §1, §2, §3, §4, §5, §6

With Dolastatin 1 the “No. of cures/total No. of mice in group” value (B16 melanoma; B16 melanoma i.p., optimal dose i.p. daily for 9 days, cured mice survive at least 60 days) was 3/10, the “life span in percent of controls” value (B16 melanoma; B16 melanoma inoculated i.p., compound i.p. every day for 9 days at optimal dose, from median survival times) was 240% of controls and the optimal dose (B16 melanoma; B16 melanoma, i.p. every day for 9 days starting first day after tumor inoculation) was 11 μg/kg/injection. The curative response (B16 melanoma; murine B16 melanoma, intraperitoneal dose of 11 μg/kg/day) was 30%, the “life span in percent of controls” value (P388 leukemia; P388 leukemia inoculated i.p., compound i.p. every day for 9 days at optimal dose, from median survival times) was 188% of controls and the optimal dose (P388 leukemia; P388 leukemia, i.p. every day for 9 days starting first day after tumor inoculation) was 11 μg/kg/injection. The life extension (P388 leukemia; murine P388 lymphocytic leukemia, intraperitoneal doses of 11 μg/kg/day) was 88%.
